From patent US8173148B2, “Stabilized polymeric delivery system comprising a water-insoluble polymer and an organic liquid” (priority 2004, dated 2012)

Experiments:
Assay type in all cases: physicochemical
[1] = Precipitation / formulation studies of GHRP-1/ATRIGEL formulations (Example 9); details: bulk GHRP-1 citrate solution, time needed for commercial manufacturing
Description: This formulation was identified as AL3922.02. […] Consequently, a fourth formulation (AL3922.04) was developed.
Table 1 summarizes the precipitation studies that were conducted for each formulation. The acronyms are identified as follows: GHRP-1 is a known […] mimicking growth hormone releasing peptide; DL2A is poly (DL) lactide-glycolide (75/25) having a terminal carboxyl group and an average molecular weight of about 13 kDa and an inherent viscosity of about 0.17 dL/g; NMP is N-methylpyrrolidone.

[2] = Degradation of PLGH by octreotide acetate in NMP, average molecular weight by GPC (Example 4); details: ambient temperature, 2 hours
Description: A solution of 34 wt % of 50/50 carboxyl terminated polylactide glycolide (PLGH at a 1:1 ratio of lactide to glycolide) in N-methylpyrrolidone (NMP) was prepared and divided into several aliquots. To a 950 mg aliquot was added 57.01 mg of octreotide acetate (OA) to provide a solution of 5.66 wt % octreotide acetate in a 34 wt % solution of PLGH in NMP. Upon standing at ambient temperature for 2 hours, the aliquot with OA and a control aliquot containing only PLGH and NMP were analyzed for average molecular weight of the PLGH by GPC analysis. The retention times were correlated against predetermined molecular weight standards of polylactide-glycolide which had been calibrated by GC-mass spectroscopy.

[3] = Effect of differing octreotide complexes on decomposition of PLGH in NMP, GPC (Example 7); details: 35 wt % 50/50 PLGH in NMP, over 25 days, FIG. 3
Description: Aliquots of a solution of 50/50 polylactide glycolide having an inherent viscosity of 0.57 dL/g and an average molecular weight of 45,000 were prepared so as to provide 35 wt % aliquots of the PLGH in N-methylpyrrolidone (NMP). To individual aliquots was added one of the following octreotide free base (OB)—complexes: OB-citrate; OB mesylate; OB-acetate; OB-Glucuronate. The OB-citrate complex was studied at several ratios: excess OB, 1:3 exchange, 1:1 exchange and citrate to pH 7. The average molecular weight of the PLGH in the solution was periodically determined over a period of 25 days by GPC analysis using pre-calibrated polylactide-glycolide standards for retention times. The following graph presents the results. […] The data determined by this experiment are presented graphically in FIG. 3.

Compound	drug precipitation / remaining in solution (Comments) [1]	average molecular weight of the PLGH ([2]; 5.66 wt % octreotide acetate in 34 wt % 50/50 PLGH in NMP, control aliquot 37,628 daltons)	degradation of the PLGH molecular weight ([2]; 34 wt % PLGH in NMP)	degradation of PLGH average molecular weight by octreotide complexes [3]
GHRP-1: growth hormone releasing peptide; seven amino acid peptide containing one lysine and one tryptophan (ATRIGEL)	tended to precipitate out of the solution over a couple of hours	–	–	–
C[C@@H](O)[C@@H]1NC(=O)[C@H](CCCCN)NC(=O)[C@@H](Cc2c[nH]c3ccccc23)NC(=O)[C@H](Cc2ccccc2)NC(=O)[C@@H](NC(=O)[C@H](N)Cc2ccccc2)CSSC[C@@H](C(=O)N[C@H](CO)[C@@H](C)O)NC1=O (relative stereo) [octreotide acetate, L-cysteinamide, D-phenylalanyl-L-cysteinyl-L-phenylalanyl-D-tryptophyl-L-lysyl-L-threonyl-N-[2-hydroxy-1-(hydroxymethyl)propyl]-, cyclic (2→7)-disulfide; [R—(R*,R*)]]	–	20,173 daltons	significant degradation	immediate dramatic degradation
